# Laboratory results as given in PubChem BioAssay (NCI).
#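 Exposure lasted 48 hours, with cells grown in 96-well plates and compounds tested at five concentrations. GI50: concentration for 50% inhibition of growth. The concentration for full growth arrest is given as TGI.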
# Legend:
# Assay in all cases: NCI tumour cell line growth inhibition, 48 h
# CAKI-1 renal = system: CAKI-1 renal
# SNB-75 CNS = system: SNB-75 CNS
# K-562 leukemia = system: K-562 leukemia
# SF-295 CNS = system: SF-295 CNS
# SK-OV-3 ovarian = system: SK-OV-3 ovarian
# A498 renal = system: A498 renal
# EKVX NSCLC = system: EKVX NSCLC
# RPMI-8226 leukemia = system: RPMI-8226 leukemia
# MALME-3M melanoma = system: MALME-3M melanoma
# NCI-H522 lung = system: NCI-H522 lung
# HL-60(TB) leukemia = system: HL-60(TB) leukemia
# NCI-H460 lung = system: NCI-H460 lung
# NCI-H226 lung = system: NCI-H226 lung
# IGROV1 ovarian = system: IGROV1 ovarian
# SK-MEL-5 melanoma = system: SK-MEL-5 melanoma
# ACHN renal = system: ACHN renal
# M14 melanoma = system: M14 melanoma
# TK-10 renal = system: TK-10 renal
# OVCAR-5 ovarian = system: OVCAR-5 ovarian
# HCT-116 colon = system: HCT-116 colon
# HS 578T breast = system: HS 578T breast
# SK-MEL-28 melanoma = system: SK-MEL-28 melanoma
# OVCAR-3 ovarian = system: OVCAR-3 ovarian
# BT-549 breast = system: BT-549 breast
# SN12C renal = system: SN12C renal
# HCT-15 colon = system: HCT-15 colon
# PC-3 prostate = system: PC-3 prostate
# KM12 colon = system: KM12 colon
# T-47D breast = system: T-47D breast
# MDA-MB-231 breast = system: MDA-MB-231 breast
# OVCAR-8 ovarian = system: OVCAR-8 ovarian
# UACC-62 melanoma = system: UACC-62 melanoma
# RXF 393 renal = system: RXF 393 renal
# SW-620 colon = system: SW-620 colon
# SF-268 CNS = system: SF-268 CNS
# MDA-MB-435 = system: MDA-MB-435
# HCC-2998 colon = system: HCC-2998 colon
# SNB-19 CNS = system: SNB-19 CNS
# DU-145 prostate = system: DU-145 prostate
# 786-0 renal = system: 786-0 renal
# SF-539 CNS = system: SF-539 CNS
# NCI/ADR-RES ovarian = system: NCI/ADR-RES ovarian
# UACC-257 melanoma = system: UACC-257 melanoma
# HT29 colon = system: HT29 colon
# U251 CNS = system: U251 CNS
# HOP-92 NSCLC = system: HOP-92 NSCLC
# COLO 205 colon = system: COLO 205 colon
# OVCAR-4 ovarian = system: OVCAR-4 ovarian
# SK-MEL-2 melanoma = system: SK-MEL-2 melanoma
# HOP-62 NSCLC = system: HOP-62 NSCLC
# MCF7 breast = system: MCF7 breast
# A549 NSCLC = system: A549 NSCLC
# NCI-H23 lung = system: NCI-H23 lung
# CCRF-CEM leukemia = system: CCRF-CEM leukemia
# UO-31 renal = system: UO-31 renal
structure (smiles),measurement,setting,value
COc1cc2c(cc1OC)[C@@H]1C(=O)c3cc4c(cc3[C@@H]1N(CCN(C)C)C2=O)OCO4,TGI,CAKI-1 renal,1080 nM
same,GI50,SNB-75 CNS,11.1 µM
same,TGI,SNB-75 CNS,30.7 µM
same,GI50,K-562 leukemia,270 nM
same,TGI,K-562 leukemia,> 42.4 µM
same,GI50,SF-295 CNS,19.4 nM
same,TGI,SF-295 CNS,37.1 µM
same,GI50,SK-OV-3 ovarian,4.2 µM
same,TGI,SK-OV-3 ovarian,> 65.2 µM
same,GI50,A498 renal,2780 nM
same,TGI,A498 renal,9.43 µM
same,GI50,EKVX NSCLC,1260 nM
same,TGI,EKVX NSCLC,21.5 µM
same,GI50,RPMI-8226 leukemia,28.9 nM
same,TGI,RPMI-8226 leukemia,349 nM
same,GI50,MALME-3M melanoma,188 nM
same,TGI,MALME-3M melanoma,3.66 µM
same,GI50,NCI-H522 lung,61.1 nM
same,TGI,NCI-H522 lung,3.2 µM
same,GI50,HL-60(TB) leukemia,23.7 nM
same,TGI,HL-60(TB) leukemia,75.2 nM
same,GI50,NCI-H460 lung,< 23.4 nM
same,TGI,NCI-H460 lung,2360 nM
same,GI50,NCI-H226 lung,210 nM
same,TGI,NCI-H226 lung,2280 nM
same,GI50,IGROV1 ovarian,445 nM
same,TGI,IGROV1 ovarian,> 100 µM
same,GI50,SK-MEL-5 melanoma,144 nM
same,TGI,SK-MEL-5 melanoma,935 nM
same,GI50,ACHN renal,17.9 nM
same,TGI,ACHN renal,452 nM
same,GI50,M14 melanoma,81.4 nM
same,TGI,M14 melanoma,11.2 µM
same,GI50,TK-10 renal,1530 nM
same,TGI,TK-10 renal,13.7 µM
same,GI50,OVCAR-5 ovarian,1100 nM
same,TGI,OVCAR-5 ovarian,15.5 µM
same,GI50,HCT-116 colon,116 nM
same,TGI,HCT-116 colon,1530 nM
same,GI50,HS 578T breast,11.1 µM
same,TGI,HS 578T breast,38.5 µM
same,GI50,SK-MEL-28 melanoma,2190 nM
same,TGI,SK-MEL-28 melanoma,> 41.3 µM
same,GI50,OVCAR-3 ovarian,349 nM
same,TGI,OVCAR-3 ovarian,1960 nM
same,GI50,BT-549 breast,838 nM
same,TGI,BT-549 breast,22.9 µM
same,GI50,SN12C renal,44.4 nM
same,TGI,SN12C renal,3.74 µM
same,GI50,HCT-15 colon,368 nM
same,TGI,HCT-15 colon,5.82 µM
same,GI50,PC-3 prostate,316 nM
same,TGI,PC-3 prostate,13.3 µM
same,GI50,KM12 colon,355 nM
same,TGI,KM12 colon,2170 nM
same,GI50,T-47D breast,923 nM
same,TGI,T-47D breast,31.3 µM
same,GI50,MDA-MB-231 breast,1060 nM
same,TGI,MDA-MB-231 breast,11.8 µM
same,GI50,OVCAR-8 ovarian,661 nM
same,TGI,OVCAR-8 ovarian,9.66 µM
same,GI50,UACC-62 melanoma,< 14.6 nM
same,TGI,UACC-62 melanoma,544 nM
same,GI50,RXF 393 renal,1260 nM
same,TGI,RXF 393 renal,> 21.6 µM
same,GI50,SW-620 colon,36.9 nM
same,TGI,SW-620 colon,18.7 µM
same,GI50,SF-268 CNS,56 nM
same,TGI,SF-268 CNS,18.1 µM
same,GI50,MDA-MB-435,787 nM
same,TGI,MDA-MB-435,23.5 µM
same,GI50,HCC-2998 colon,609 nM
same,TGI,HCC-2998 colon,9.77 µM
same,GI50,SNB-19 CNS,1730 nM
same,TGI,SNB-19 CNS,> 47.3 µM
same,GI50,DU-145 prostate,30 nM
same,TGI,DU-145 prostate,4.84 µM
same,GI50,786-0 renal,< 20.3 nM
same,TGI,786-0 renal,5.02 µM
same,GI50,SF-539 CNS,66.9 nM
same,TGI,SF-539 CNS,11.1 µM
same,GI50,NCI/ADR-RES ovarian,337 nM
same,TGI,NCI/ADR-RES ovarian,14.7 µM
same,GI50,UACC-257 melanoma,784 nM
same,TGI,UACC-257 melanoma,> 33.1 µM
same,GI50,HT29 colon,104 nM
same,GI50,U251 CNS,42.7 nM
same,TGI,U251 CNS,12 µM
same,GI50,HOP-92 NSCLC,208 nM
same,TGI,HOP-92 NSCLC,8.87 µM
same,GI50,COLO 205 colon,663 nM
same,TGI,COLO 205 colon,> 35.5 µM
same,GI50,OVCAR-4 ovarian,768 nM
same,TGI,OVCAR-4 ovarian,18.3 µM
same,GI50,SK-MEL-2 melanoma,11.1 µM
same,TGI,SK-MEL-2 melanoma,> 100 µM
same,GI50,HOP-62 NSCLC,35.5 nM
same,TGI,HOP-62 NSCLC,10.6 µM
same,GI50,MCF7 breast,< 36.6 nM
same,TGI,MCF7 breast,14.2 µM
same,GI50,A549 NSCLC,171 nM
same,TGI,A549 NSCLC,3.67 µM
same,GI50,NCI-H23 lung,162 nM
same,TGI,NCI-H23 lung,5.09 µM
same,TGI,CCRF-CEM leukemia,> 100 µM
same,GI50,UO-31 renal,85.5 nM
